# Literature values as cited in patent US20210361700A1 (priority 2020, published 2021).
# Test system: influenza
# Conditions: older mice
substance,measurement,value
Vitamin E,resistance to and pathogenesis of influenza,Increases resistance to and
